Test results taken from PMC4139342, “Pharmacokinetics-Pharmacodynamics Analysis of Bicyclic 4-Nitroimidazole Analogs in a Murine Model of Tuberculosis” (PLoS ONE, 2014).
≈ marks a conversion by molar mass, not a printed value.

Legend:
in vivo [1] = conditions: female, CD-1, mouse, iv, 5 mg/kg; for clearance: i.v. CL
[2] = female, CD-1, mouse, in vivo, po, 25 mg/kg
[3] = In vivo plasma PK after oral dosing in CM-2 formulation; conditions: female, CD-1, mouse, plasma, po, 25 mg/kg
[4] = In vivo lung PK after oral dosing; conditions: female, CD-1, mouse, 25 mg/kg
in vitro [5] = conditions: human, Caco-2
Mtb H37Rv = test: In vivo mouse efficacy, established murine TB model; parameters: species or system Balb/c mice; conditions: for Efficacy compared with PA-824, in words: significance at P<0.05
Protocol: In vivo mouse efficacy studies were determined after intranasal infection of Balb/c mice with 10^3 cfu Mtb H37Rv. Treatment was initiated 4 weeks after infection. Compounds were orally administered in CM-2 formulation for 4 weeks daily. Bacterial loads were determined at 2 and 4 weeks post treatment. Statistical analysis was done by a one-way analysis of variance, followed by a multiple comparison analysis of variance by a one-way Tukey test (GraphPad Prism, version 5.02, San Diago, California USA, www.graphpad.com). Differences were considered statistically significant at the 95% level of confidence.

in vivo [6] = conditions: female, CD-1, mouse, po, 25 mg/kg
[7] = female, CD-1, mouse, in vivo, po, 25 mg/kg; remark: listed apart in the source
physchem [8] = test: physchem
[9] = In vivo plasma PK after intravenous dosing; conditions: female, CD-1, mouse, plasma, iv, 5 mg/kg, T1/2 (i.v), mice, i.v. dosing at 5 mg/kg
in vivo [10] = conditions: female, CD-1, mouse, po, 25 mg/kg; remark: listed apart in the source
[11] = tested on: M. tuberculosis (Mtb) (H37Rv, ATCC 27294); test: microbe, parasite or virus in culture; assay type: cell-based; conditions: for MIC99: Mycobacterium tuberculosis
[12] = Cytotoxicity against THP1 macrophage cell lines; assay type: cell-based; conditions: human
in vitro [13] = conditions: mouse, plasma
[14] = not given; remark: listed apart in the source
[15] = female, CD-1, mouse, in vivo, iv, 5 mg/kg
physchem [16] = conditions: pH 6.8, aqueous buffer, thermodynamic from solid
[17] = 25 mg/kg oral daily for 4 weeks, 5 animals
[18] = 100 mg/kg oral daily for 4 weeks, 5 animals
[19] = 100 mg/kg oral daily for 4 weeks
[20] = Mycobacterium tuberculosis, H37RV, po, 672 h, 100 mg/kg oral daily for 4 weeks, 5 animals, read-out: Mean log lung CFU reduction ± SEM compared to untreated controls

| Compound | Vd (in vivo [1]) | clearance (in vivo [1]) | Lung AUC24 [2] | Lung Cmax [2] | half-life [3] | half-life [4] | Papp A→B (in vitro [5]) | Papp B→A (in vitro [5]) | efflux ratio (in vitro [5]) | Mean log lung CFU ± SEM (Mtb H37Rv; [18]) | Efficacy compared with PA-824, in words (Mtb H37Rv; [19]) | log reduction at 100 mg/kg (Mtb H37Rv; [20]) | Kp (in vivo [6]; Lung to Plasma ratio AUC24) | Kp (in vivo [6]; Lung to Plasma ratio Cmax) | logP (physchem [8]) | half-life [9] | AUC (in vivo [10]) | Cmax (in vivo [10]) | bioavailability (in vivo [10]) | MIC99 [11] | further results |
| --- | --- | --- | --- | --- | --- | --- | --- | --- | --- | --- | --- | --- | --- | --- | --- | --- | --- | --- | --- | --- | --- |
| O=[N+]([O-])c1cn2c(n1)OC[C@@H](NCc1ccc(OC(F)(F)F)c(Cl)c1)C2 [NI-135] | 4.2 L/kg | 41 mL/min/kg | 18.6 µg·h/g | 5.5 µg/g | 2.9 h | 3.3 h | 23.4 ×10⁻⁶ cm/s | 15.3 ×10⁻⁶ cm/s | 0.6 | 4.36±0.07 log CFU | comparable efficacy to PA-824 | 1.88 ± 0.07 | 3.9 | 4.6 | 3 | 4 h | 4800 ng·h/mL | 1200 ng/mL | 51% | 0.03 µg/mL (≈ 0.0764 µM) | Absolute lung concentrations, fold lower than PA-824 [2]: 2.5-7.5 fold; Mean log lung CFU reduction ± SEM compared to untreated controls (Mtb H37Rv; [17]): 1.48 ± 0.07 log CFU; Mean log lung CFU ± SEM (Mtb H37Rv; [17]): 4.76±0.07 log CFU; Efficacy compared with PA-824, in words (Mtb H37Rv; 25 mg/kg oral daily for 4 weeks): comparable efficacy to PA-824; Dose dependence of efficacy, in words (Mtb H37Rv; 25 versus 100 mg/kg oral daily for 4 weeks): dose dependent increase in efficacy; log reduction at 25 mg/kg (Mtb H37Rv; Mycobacterium tuberculosis, H37RV, po, 672 h, 25 mg/kg oral daily for 4 weeks, 5 animals, read-out: Mean log lung CFU reduction ± SEM compared to untreated controls): 1.48 ± 0.07; Tmax (in vivo [6]): 0.5 h; Plasma free fCmax [7]: 0.1 µg/mL; Solubility pH 6.8: 77.0 µg/mL; Tmax (in vivo [10]): 0.5 h; In vitro potency relative to PA-824 [11]: 10 times; CC50 [12]: > 10 µg/mL; fraction unbound (in vitro [13]): 0.085; PAMPA %FA [14]: 90%; PAMPA Log Pe [14]: –4.5 cm/sec |
| O=[N+]([O-])c1cn2c(n1)OC1(CC1)C(OCc1ccc(OC(F)(F)F)cc1)C2 (stereo not shown) [NI-302] | 1.2 L/kg | 5 mL/min/kg | 100.3 µg·h/g | 9.7 µg/g | 4.1 h | 4.1 h | 45.1 ×10⁻⁶ cm/s | 18.7 ×10⁻⁶ cm/s | 0.4 | 4.45±0.22 log CFU | comparable efficacy to PA-824 | 2.17 ± 0.22 | 0.7 | 0.8 | 3.2 | 3.7 h | 144000 ng·h/mL | 12900 ng/mL | 100% | 0.03 µg/mL (≈ 0.0779 µM) | i.v. CL [15]: 4.3 mL/min/kg; solubility (physchem [16]): 26 µg/mL (≈ 67.5 µM); CC50 [12]: > 10 µg/mL; fraction unbound (in vitro [13]): 0.043; PAMPA %FA [14]: 99%; PAMPA Log Pe [14]: –3.6 cm/sec |
